Measured values taken from patent publication US20070249590A1, “Substituted indolo[2,3-a]pyrrolo[3,4-c]carbazole compounds useful in treating kinase disorders” (priority 2005, published 2007).

The compounds below were run against T1, JAK3 (JH1 and JH2 domain) (Homo sapiens, UniProt P52333) (assay: JAK3 Kinase Assay (ELISA of peptide substrate phosphorylation)). Settings: purified JAK3 enzyme, 10 μM ATP, biotinylated peptide substrate, 1 hour at room temperature.
T1 sequence (P52333 521-1111 limits assumed): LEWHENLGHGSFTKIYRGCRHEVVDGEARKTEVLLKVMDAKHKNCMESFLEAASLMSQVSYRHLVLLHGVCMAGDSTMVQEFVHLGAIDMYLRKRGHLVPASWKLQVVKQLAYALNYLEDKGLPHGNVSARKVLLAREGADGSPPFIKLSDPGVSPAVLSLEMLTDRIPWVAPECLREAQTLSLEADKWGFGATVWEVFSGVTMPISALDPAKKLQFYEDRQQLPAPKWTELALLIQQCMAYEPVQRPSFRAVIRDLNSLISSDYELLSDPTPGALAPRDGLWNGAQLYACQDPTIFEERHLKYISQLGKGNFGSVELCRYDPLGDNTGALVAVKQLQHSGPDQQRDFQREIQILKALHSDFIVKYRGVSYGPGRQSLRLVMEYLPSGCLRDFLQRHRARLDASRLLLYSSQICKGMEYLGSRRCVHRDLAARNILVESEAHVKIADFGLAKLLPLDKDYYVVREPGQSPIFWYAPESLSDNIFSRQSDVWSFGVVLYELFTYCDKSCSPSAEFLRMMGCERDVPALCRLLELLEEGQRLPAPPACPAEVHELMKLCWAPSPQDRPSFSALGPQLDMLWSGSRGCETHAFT
Format: biochemical
Outline: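 Sf21-baculovirus-expressed JAK3 (JH1+JH2), glutathione-bead purified, with biotinylated peptide substrate (in buffer containing 10 μM ATP) in HEPES pH 7.5/MgCl2/DTT, 1 h RT. Product was captured on Neutravidin, detected with HRP anti-phosphotyrosine (PY99)/TMB, OD 450/650 nm. Triplicate 16-point half-log series from 200 μM gave IC50; otherwise % inhibition at 1 μM.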

| SMILES | IC50 |
| --- | --- |
| O=C1NC(=O)c2c1c1c3ccccc3n3c1c1c2c2ccccc2n1CC(O)(C(=O)NCc1ccncc1)C(O)C3 (stereo not drawn) [Cpd 117, 12,13-{2-[(pyridin-4-ylmethyl)carbamoyl]-2,3-dihydroxy-butan-1,4-yl}-12,13-dihydro-5,7-dioxo-6H-indolo[2,3-a]pyrrolo[3,4-c]carbazole] | 15 nM |
| O=C1NCc2c1c1c3ccccc3n3c1c1c2c2ccccc2n1CC(O)(COC(=O)N1CCN(c2ccc(O)cc2)CC1)C3 (stereo not drawn) [Cpd 137, 12,13-(2-hydroxy-2-{[4-(4-hydroxy-phenyl)piperazin-1-yl]carbonyloxymethyl}-propan-1,3-yl)-6,7,12,13-tetrahydro-5-oxo-5H-indolo[2,3-a]pyrrolo[3,4-c]carbazole] | 175 nM |
| O=C(NCCCN1CCOCC1)OCC1Cn2c3ccccc3c3c4c(c5c6ccccc6n(c5c32)C1)C(=O)NC4 (stereo not drawn) [Cpd 165, 12,13-{2-[(3-morpholin-4-yl-prop-1-yl)carbamoyloxymethyl]-propan-1,3-yl}-6,7,12,13-tetrahydro-5-oxo-5H-indolo[2,3-a]pyrrolo[3,4-c]carbazole] | 278 nM |
| CN(C)CCNC(=O)OC1CCn2c3ccccc3c3c4c(c5c6ccccc6n(c5c32)C1)C(=O)NC4=O (stereo not drawn) [Cpd 50, 12,13-{2-[(2-dimethylamino-ethyl)carbamoyloxy]-butan-1,4-yl}-12,13-dihydro-5,7-dioxo-6H-indolo[2,3-a]pyrrolo[3,4-c]carbazole] | 31 nM |
| CN(C)[C@H]1CCN(C(=O)OC2CCn3c4ccccc4c4c5c(c6c7ccccc7n(c6c43)C2)C(=O)NC5=O)C1 (stereo partly drawn) [Cpd 73, 12,13-(2-{[(3S)-3-dimethylamino-pyrrolidin-1-yl]carbonyloxy}-butan-1,4-yl)-12,13-dihydro-5,7-dioxo-6H-indolo[2,3-a]pyrrolo[3,4-c]carbazole] | 42 nM |
| CN(C)CC(=O)OC1Cn2c3ccccc3c3c4c(c5c6ccccc6n(c5c32)CC1OC(=O)CN(C)C)C(=O)NC4 (stereo not drawn) [Cpd 15, 12,13-{2,3-bis-[(dimethylaminomethyl)carbonyloxy]-butan-1,4-yl}-6,7,12,13-tetrahydro-5-oxo-5H-indolo[2,3-a]pyrrolo[3,4-c]carbazole] | 653 nM |
| O=C1NC(=O)c2c1c1c3cc(-c4cncnc4)ccc3n3c1c1c2c2ccccc2n1CC(O)CC3 (stereo not drawn) [Cpd 34, 3-pyrimidin-5-yl-12,13-(2-hydroxy-butan-1,4-yl)-12,13-dihydro-5,7-dioxo-6H-indolo[2,3-a]pyrrolo[3,4-c]carbazole] | 66 nM |
| O=C1NCc2c1c1c3cc(Br)ccc3n3c1c1c2c2ccccc2n1CC(O)C(O)C3 (stereo not drawn) [Cpd 188, 3-bromo-12,13-(2,3-dihydroxy-butan-1,4-yl)-6,7,12,13-tetrahydro-5-oxo-5H-indolo[2,3-a]pyrrolo[3,4-c]carbazole] | 34 nM |
| O=C1NCc2c1c1c3cc(/C=C/Cn4ccnc4)ccc3n3c1c1c2c2ccccc2n1CC(O)C(O)C3 (stereo not drawn) [Cpd 201] | 24 nM |
| O=C1NCc2c1c1c3cc(/C=C/Cn4ccnc4)ccc3n3c1c1c2c2cc(CO)ccc2n1CC(CO)C3 (stereo not drawn) [Cpd 223, 3-[(1E)-3-1H-imidazol-1-yl-prop-1-en-1-yl]-9-hydroxymethyl-12,13-(2-hydroxymethyl-propan-1,3-yl)-6,7,12,13-tetrahydro-5-oxo-5H-indolo[2,3-a]pyrrolo[3,4-c]carbazole] | 3 nM |
| O=C1NCc2c1c1c3ccccc3n3c1c1c2c2ccccc2n1CC/C=C\CC3 [Cpd 5, 12,13-(hex-3-en-1,6-yl)-6,7,12,13-tetrahydro-5-oxo-5H-indolo[2,3-a]pyrrolo[3,4-c]carbazole] | 39 nM |
| O=C1NC(=O)c2c1c1c3cc(-c4cccnc4)ccc3n3c1c1c2c2ccccc2n1CC(O)CC3 (stereo not drawn) [Cpd 32, 3-pyridin-3-yl-12,13-(2-hydroxy-butan-1,4-yl)-12,13-dihydro-5,7-dioxo-6H-indolo[2,3-a]pyrrolo[3,4-c]carbazole] | 35 nM |

Further lines, results first:

| IC50 | SMILES |
| --- | --- |
| 134 nM | O=C(NCCc1ccccn1)OC1Cn2c3ccccc3c3c4c(c5c6ccccc6n(c5c32)CC1O)C(=O)NC4=O (stereo not drawn) [Cpd 82, 12,13-{2-[(2-pyridin-2-yl-ethyl)carbamoyloxy]-3-hydroxy-butan-1,4-yl}-12,13-dihydro-5,7-dioxo-6H-indolo[2,3-a]pyrrolo[3,4-c]carbozole] |
| 8 nM | O=C1NCc2c1c1c3cc(CO)ccc3n3c1c1c2c2cc(CO)ccc2n1CC(CO)C3 (stereo not drawn) [Cpd 215, 3,9-bis-(hydroxymethyl)-12,13-(2-hydroxymethyl-propan-1,3-yl)-6,7,12,13-tetrahydro-5-oxo-5H-indolo[2,3-a]pyrrolo[3,4-c]carbazole] |
| 36 nM | O=C1NC(=O)c2c1c1c3ccccc3n3c1c1c2c2ccccc2n1CC(OC(=O)N1CCN(c2ccccc2)CC1)CC3 (stereo not drawn) [Cpd 64, 12,13-{2-[(4-phenyl-piperazin-1-yl)carbonyloxy]-butan-1,4-yl}-12,13-dihydro-5,7-dioxo-6H-indolo[2,3-a]pyrrolo[3,4-c]carbazole] |
| 115 nM | O=C1NCc2c1c1c3cc([N+](=O)[O-])ccc3n3c1c1c2c2ccccc2n1CC(O)C(O)C3 (stereo not drawn) [Cpd 191, 3-nitro-12,13-(2,3-dihydroxy-butan-1,4-yl)-6,7,12,13-tetrahydro-5-oxo-5H-indolo[2,3-a]pyrrolo[3,4-c]carbazole] |
| 26 nM | O=C1NCc2c1c1c3ccccc3n3c1c1c2c2ccccc2n1CC(O)(COC(=O)N1CCCNCC1)C3 (stereo not drawn) [Cpd 146, 12,13-{2-hydroxy-2-[(hexahydro-1H-1,4-diazepin-1-yl)carbonyloxymethyl]-propan-1,3-yl}-6,7,12,13-tetrahydro-5-oxo-5H-indolo[2,3-a]pyrrolo[3,4-c]carbazole] |
| 1000 nM | O=C1NC(=O)c2c1c1c3ccccc3n3c1c1c2c2ccccc2n1CC(OC(=O)N1CCN(Cc2ccc4c(c2)OCO4)CC1)CC3 (stereo not drawn) [Cpd 54, 12,13-(2-{[4-(benzo[1,3]dioxol-5-yl-methyl)piperazin-1-yl]carbonyloxy}-butan-1,4-yl)-12,13-dihydro-5,7-dioxo-6H-indolo[2,3-a]pyrrolo[3,4-c]carbazole] |
| 169 nM | CN1CCC(Nc2ccc3c(c2)c2c4c(c5c6ccccc6n6c5c2n3CC(O)C(O)C6)CNC4=O)CC1 (stereo not drawn) [Cpd 204, 3-[(1-methyl-piperidin-4-yl)amino]-12,13-(2,3-dihydroxy-butan-1,4-yl)-6,7,12,13-tetrahydro-5-oxo-5H-indolo[2,3-a]pyrrolo[3,4-c]carbazole] |
| 693 nM | CN1CCN(CCCNCc2ccc3c(c2)c2c4c(c5c6ccccc6n6c5c2n3CC(O)C(O)C6)CNC4=O)CC1 (stereo not drawn) [Cpd 197, 3-{[3-(4-methyl-piperazin-1-yl)prop-1-yl]aminomethyl}-12,13-(2,3-dihydroxy-butan-1,4-yl)-6,7,12,13-tetrahydro-5-oxo-5H-indolo[2,3-a]pyrrolo[3,4-c]carbazole] |
| 1060 nM | COCCNC(=O)OC1CCn2c3ccccc3c3c4c(c5c6ccccc6n(c5c32)CC1)C(=O)NC4 (stereo not drawn) [Cpd 179, 12,13-{3-[(2-methoxy-ethyl)carbamoyloxy]-pentan-1,5-yl}-6,7,12,13-tetrahydro-5-oxo-5H-indolo[2,3-a]pyrrolo[3,4-c]carbazole] |
| 113 nM | O=C(NCCCN1CCOCC1)OC1Cn2c3ccccc3c3c4c(c5c6ccccc6n(c5c32)CC1O)C(=O)NC4=O (stereo not drawn) [Cpd 88, 12,13-{2-[(3-morpholin-4-yl-prop-1-yl)carbamoyloxy]-3-hydroxy-butan-1,4-yl}-12,13-dihydro-5,7-dioxo-6H-indolo[2,3-a]pyrrolo[3,4-c]carbazole] |
| 45 nM | O=C1NCc2c1c1c3ccccc3n3c1c1c2c2ccccc2n1CC(O)(COC(=O)N1CCC(N2CCCC2)CC1)C3 (stereo not drawn) [Cpd 150, 12,13-{2-hydroxy-2-[(4-pyrrolidin-1-yl-piperidin-1-yl)carbonyloxymethyl]-propan-1,3-yl}-6,7,12,13-tetrahydro-5-oxo-5H-indolo[2,3-a]pyrrolo[3,4-c]carbazole] |
| 37 nM | O=C1NCc2c1c1c3ccccc3n3c1c1c2c2ccccc2n1CC(=C(CO)CO)C3 [Cpd 24, 12,13-(2-{[1,1-bis-(dihydroxymethyl)]methylidene}-propan-1,3-yl)-6,7,12,13-tetrahydro-5-oxo-5H-indolo[2,3-a]pyrrolo[3,4-c]carbazole] |
| 67 nM | O=C1NC(=O)c2c1c1c3ccccc3n3c1c1c2c2ccccc2n1CC(O)(C(=O)N1CCN(c2ccc(O)cc2)CC1)C(O)C3 (stereo not drawn) [Cpd 129, 12,13-(2-{[4-(4-hydroxy-phenyl)piperazin-1-yl]carbonyl}-2,3-dihydroxy-butan-1,4-yl)-12,13-dihydro-5,7-dioxo-6H-indolo[2,3-a]pyrrolo[3,4-c]carbazole] |
| 17 nM | COc1ccc(CCNC(=O)OCC2(O)Cn3c4ccccc4c4c5c(c6c7ccccc7n(c6c43)C2)C(=O)NC5)cc1OC (stereo not drawn) [Cpd 153, 12,13-(2-hydroxy-2-{[2-(3,4-dimethoxy-phenyl)ethyl]carbamoyloxymethyl}-propan-1,3-yl)-6,7,12,13-tetrahydro-5-oxo-5H-indolo[2,3-a]pyrrolo[3,4-c]carbazole] |
| 115 nM | O=C1NC(=O)c2c1c1c3ccccc3n3c1c1c2c2ccccc2n1CC(OC(=O)N1CCN(CCN2CCOCC2)CC1)CC3 (stereo not drawn) [Cpd 56, 12,13-(2-{[4-(2-morpholin-4-yl-ethyl)piperazin-1-yl]carbonyloxy}-butan-1,4-yl)-12,13-dihydro-5,7-dioxo-6H-indolo[2,3-a]pyrrolo[3,4-c]carbazole] |
